Target: T1, hM2 muscarinic receptor subtype (Homo sapiens, UniProt P08172)
T1 construct: expressed in transfected cells
T1 sequence (P08172 1-466): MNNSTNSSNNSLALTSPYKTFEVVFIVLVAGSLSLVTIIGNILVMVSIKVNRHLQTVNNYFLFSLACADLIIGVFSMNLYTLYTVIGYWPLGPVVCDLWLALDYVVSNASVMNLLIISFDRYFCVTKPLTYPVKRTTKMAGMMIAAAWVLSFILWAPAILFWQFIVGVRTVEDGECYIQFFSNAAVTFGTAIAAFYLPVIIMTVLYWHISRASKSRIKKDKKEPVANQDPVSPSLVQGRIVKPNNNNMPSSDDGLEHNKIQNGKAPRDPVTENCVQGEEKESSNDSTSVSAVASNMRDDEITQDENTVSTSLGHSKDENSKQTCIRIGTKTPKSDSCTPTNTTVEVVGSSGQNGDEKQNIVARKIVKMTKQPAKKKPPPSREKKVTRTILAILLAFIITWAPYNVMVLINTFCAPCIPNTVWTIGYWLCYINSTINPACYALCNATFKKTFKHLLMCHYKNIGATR
Test: Radioligand binding assay ([3H]-NMS displacement), hM2
Method: A. Membrane Preparation from Cells Expressing hM1, hM2, hM3 and hM4 Muscarinic Receptor Subtypes
CHO (Chinese hamster ovary) cell lines stably expressing cloned human hM1, hM2, hM3 and hM4 muscarinic receptor subtypes, respectively, were grown to near confluency in medium consisting of HAM's F-12 supplemented with 10% FBS (Fetal Bovine Serum) and 250 μg/mL Geneticin. The cells were grown in a 5% CO2, 37° C. incubator and lifted with 2 mm EDTA in dPBS. Cells were collected by 5 minute centrifugation at 650×g, and cell pellets were either stored frozen at −80° C. or membranes were prepared immediately. For membrane preparation, cell pellets were resuspended in lysis buffer and homogenized with a Polytron PT-2100 tissue disrupter (Kinematica AG; 20 seconds×2 bursts). Crude membranes were centrifuged at 40,000×g for 15 minutes at 4° C. The membrane pellet was then resuspended with resuspension buffer and homogenized again with the Polytron tissue disrupter. The protein concentration of the membrane suspension was determined by the method described in Lowry, O. et al., 1951, […]: 193, 265. All membranes were stored frozen in aliquots at −80° C. or used immediately. Aliquots of prepared hM5 receptor membranes were purchased directly from Perkin Elmer and stored at −80° C. until use.
B. Radioligand Binding Assay on Muscarinic Receptor Subtypes hM1, hM2, hM3, hM4 and hM5
Radioligand binding assays were performed in 96-well microtiter plates in a total assay volume of 100 μL. CHO cell membranes stably expressing either the hM1, hM2, hM3, hM4 or hM5 muscarinic subtype were diluted in assay buffer to the following specific target protein concentrations (μg/well): 10 μg for hM1, 10-15 μg for hM2, 10-20 μg for hM3, 10-20 μg for hM4, and 10-12 μg for hM5. The membranes were briefly homogenized using a Polytron tissue disruptor (10 seconds) prior to assay plate addition. Saturation binding studies for determining KD values of the radioligand were performed using L-[N-methyl-3H]scopolamine methyl chloride ([^3H]-NMS) (TRK666, 84.0 Ci/mmol, Amersham Pharmacia Biotech, Buckinghamshire, England) at concentrations ranging from 0.001 nM to 20 nM. Displacement assays for determination of Ki values of test compounds were performed with [^3H]-NMS at 1 nM and eleven different test compound concentrations. The test compounds were initially dissolved to a concentration of 400 μM in dilution buffer and then serially diluted 5× with dilution buffer to final concentrations ranging from […] to […]. The addition order and volumes to the assay plates were as follows: 25 μL radioligand, 25 μL diluted test compound, and 50 μL membranes. Assay plates were incubated for 60 minutes at 37° C. Binding reactions were terminated by rapid filtration over GF/B glass fiber filter plates (PerkinElmer Inc., Wellesley, Mass.) pre-treated in 1% BSA. Filter plates were rinsed three times with wash buffer (10 mm HEPES) to remove unbound radioactivity. Plates were then air dried, and 50 μL Microscint-20 liquid scintillation fluid (PerkinElmer Inc., Wellesley, Mass.) was added to each well. The plates were then counted in a PerkinElmer Topcount liquid scintillation counter (PerkinElmer Inc., Wellesley, Mass.). Binding data were analyzed by nonlinear regression analysis with the GraphPad Prism Software package (GraphPad Software, Inc., San Diego, Calif.) using the one-site competition model. Ki values for test compounds were calculated from observed IC50 values and the KD value of the radioligand using the Cheng-Prusoff equation (Cheng Y; Prusoff W H. (1973) Biochemical Pharmacology, 22(23):3099-108). Ki values were converted to pKi values to determine the geometric mean and 95% confidence intervals. These summary statistics were then converted back to Ki values for data reporting.

Ki (CHO cell membranes, [3H]-NMS 1 nM, read-out: hM2 binding affinity (Ki)): 3.8 nM | Δ hM2: change in binding affinity relative to compound of the invention (ratio of hM2 Ki values): ×4.7
SMILES: CNCCCCCCCCN1CC[C@@H](C(C(N)=O)(c2ccccc2)c2ccccc2)C1 [Example 1, 2-[(S)-1-(8-Methylaminooctyl)pyrrolidin-3-yl]-2,2-diphenylacetamide]

Source: patent US7638639B2, “Substituted pyrrolidine and related compounds” (Theravance, Inc., priority 2003, dated 2009)
